Data published in ChEMBL document CHEMBL4145521, “Regioselective synthesis of 3,4-diaryl-5-unsubstituted isoxazoles, analogues of natural cytostatic combretastatin A4” (Eur J Med Chem, 2018).

Assays:
Type in all cases: functional
[1] = tested on: CAKI-1; experiment: Cytotoxicity against human Caki1 cells assessed as cell growth at 1 uM incubated for 48 hrs by sulforhodamine B assay relative to control; conditions: CAKI-1, 48 h, read-out: Activity
[2] = tested on: NCI-H460; experiment: Cytotoxicity against human NCI-H460 cells assessed as cell growth at 1 uM incubated for 48 hrs by sulforhodamine B assay relative to control; conditions: NCI-H460, 48 h, read-out: Activity
[3] = tested on: CCRF-CEM; experiment: Cytotoxicity against human CCRF-CEM cells assessed as cell growth at 1 uM incubated for 48 hrs by sulforhodamine B assay relative to control; conditions: read-out: Activity
[4] = tested on: HOP-92; experiment: Cytotoxicity against human HOP92 cells assessed as cell growth at 1 uM incubated for 48 hrs by sulforhodamine B assay relative to control; conditions: HOP-92, 48 h, read-out: Activity
[5] = tested on: OVCAR-5; experiment: Cytotoxicity against human OVCAR5 cells incubated for 48 hrs by sulforhodamine B assay; conditions: OVCAR-5, 48 h
[6] = tested on: A549; experiment: Cytotoxicity against human A549/ATCC cells incubated for 48 hrs by sulforhodamine B assay; conditions: A549, 48 h
[7] = tested on: MCF7; experiment: Cytotoxicity against human MCF7 cells assessed as cell growth at 10 uM incubated for 48 hrs by sulforhodamine B assay relative to control; conditions: MCF7, 48 h, read-out: Activity
[8] = tested on: Malme-3M; experiment: Cytotoxicity against human MALME-3M cells assessed as cell growth at 0.1 uM incubated for 48 hrs by sulforhodamine B assay relative to control; conditions: read-out: Activity
[9] = tested on: TK-10; experiment: Cytotoxicity against human TK10 cells assessed as cell growth at 10 uM incubated for 48 hrs by sulforhodamine B assay relative to control; conditions: TK-10, 48 h, read-out: Activity
[10] = tested on: UACC-62; experiment: Cytotoxicity against human UACC62 cells assessed as cell growth at 100 uM incubated for 48 hrs by sulforhodamine B assay relative to control; conditions: UACC-62, 48 h, read-out: Activity
[11] = tested on: M14; experiment: Cytotoxicity against human M14 cells assessed as cell growth at 1 uM incubated for 48 hrs by sulforhodamine B assay relative to control; conditions: M14, 48 h, read-out: Activity
[12] = tested on: SK-MEL-28; experiment: Cytotoxicity against human SK-MEL-28 cells incubated for 48 hrs by sulforhodamine B assay; conditions: SK-MEL-28, 48 h
[13] = tested on: SNB-75; experiment: Cytotoxicity against human SNB75 cells assessed as cell growth at 1 uM incubated for 48 hrs by sulforhodamine B assay relative to control; conditions: SNB-75, 48 h, read-out: Activity
[14] = tested on: BT-549; experiment: Cytotoxicity against human BT549 cells assessed as cell growth at 0.01 uM incubated for 48 hrs by sulforhodamine B assay relative to control; conditions: BT-549, 48 h, read-out: Activity
[15] = tested on: Malme-3M; experiment: Cytotoxicity against human MALME-3M cells assessed as cell growth at 100 uM incubated for 48 hrs by sulforhodamine B assay relative to control; conditions: read-out: Activity
[16] = tested on: CAKI-1; experiment: Cytotoxicity against human Caki1 cells assessed as cell growth at 0.1 uM incubated for 48 hrs by sulforhodamine B assay relative to control; conditions: CAKI-1, 48 h, read-out: Activity
[17] = tested on: UO-31; experiment: Cytotoxicity against human UO31 cells assessed as cell growth at 0.1 uM incubated for 48 hrs by sulforhodamine B assay relative to control; conditions: UO-31, 48 h, read-out: Activity
[18] = tested on: LOX IMVI; experiment: Cytotoxicity against human LOXIMVI cells assessed as cell growth at 100 uM incubated for 48 hrs by sulforhodamine B assay relative to control; conditions: read-out: Activity
[19] = tested on: PC-3; experiment: Cytotoxicity against human PC3 cells assessed as cell growth at 1 uM incubated for 48 hrs by sulforhodamine B assay relative to control; conditions: PC-3, 48 h, read-out: Activity
[20] = tested on: RPMI-8226; experiment: Cytotoxicity against human RPMI8226 cells assessed as cell growth at 10 uM incubated for 48 hrs by sulforhodamine B assay relative to control; conditions: RPMI-8226, 48 h, read-out: Activity
[21] = tested on: NCI/ADR-RES; experiment: Cytotoxicity against human NCI/ADR-RES cells assessed as cell growth at 10 uM incubated for 48 hrs by sulforhodamine B assay relative to control; conditions: read-out: Activity
[22] = tested on: BT-549; experiment: Cytotoxicity against human BT549 cells incubated for 48 hrs by sulforhodamine B assay; conditions: BT-549, 48 h
[23] = tested on: NCI-H23; experiment: Cytotoxicity against human NCI-H23 cells incubated for 48 hrs by sulforhodamine B assay; conditions: NCI-H23, 48 h
[24] = tested on: SK-OV-3; experiment: Cytotoxicity against human SKOV3 cells incubated for 48 hrs by sulforhodamine B assay; conditions: SK-OV-3, 48 h
[25] = tested on: IGROV-1; experiment: Cytotoxicity against human IGROV1 cells incubated for 48 hrs by sulforhodamine B assay; conditions: IGROV-1, 48 h
[26] = tested on: SK-MEL-5; experiment: Cytotoxicity against human SK-MEL-5 cells assessed as cell growth at 10 uM incubated for 48 hrs by sulforhodamine B assay relative to control; conditions: SK-MEL-5, 48 h, read-out: Activity
[27] = tested on: DU-145; experiment: Cytotoxicity against human DU145 cells assessed as cell growth at 100 uM incubated for 48 hrs by sulforhodamine B assay relative to control; conditions: DU-145, 48 h, read-out: Activity
[28] = tested on: A549; experiment: Cytotoxicity against human A549/ATCC cells assessed as cell growth at 0.01 uM incubated for 48 hrs by sulforhodamine B assay relative to control; conditions: A549, 48 h, read-out: Activity
[29] = tested on: SK-MEL-2; experiment: Cytotoxicity against human SK-MEL-2 cells assessed as cell growth at 0.1 uM incubated for 48 hrs by sulforhodamine B assay relative to control; conditions: SK-MEL-2, 48 h, read-out: Activity
[30] = read-out: LC50 (the source's name)
[31] = read-out: pLC50 (the source's name) (converted)

COc1ccc(-c2nocc2-c2cc(OC)c(OC)c(OC)c2)cc1 gave a growth at 1 µM [1] of 47%, a growth at 1 µM [2] of 11% and a growth at 1 µM [3] of 24%. For the same molecule, the growth at 1 µM [4] was 46%, the GI50 ([5]; read-out: GI50) was 1.65 µM and the LC50 ([5]; read-out: LC50) was > 100 µM. For the same molecule, the TGI ([5]; read-out: TGI) was > 100 µM, the GI50 ([5]; read-out: pGI50 (converted)) was 1.66 µM and the LC50 ([5]; read-out: pLC50 (converted)) was > 100 µM. For the same molecule, the TGI ([5]; read-out: pTGI) was > 100 µM, the GI50 ([6]; read-out: GI50) was 0.0869 µM and the LC50 ([6]; read-out: LC50) was > 100 µM. For the same molecule, the TGI ([6]; read-out: TGI) was > 100 µM, the GI50 ([6]; read-out: pGI50 (converted)) was 0.0871 µM and the LC50 ([6]; read-out: pLC50 (converted)) was > 100 µM. The TGI ([6]; read-out: pTGI) was > 100 µM, the growth at 10 µM [7] was 14% and the growth at 0.1 µM [8] was 55%. The growth at 10 µM [9] was 18%, the growth at 100 µM [10] was -38% and the growth at 1 µM [11] was 12%. For the same molecule, the GI50 ([12]; read-out: GI50) was 4.96 µM, the CC50 [12, 30] was > 100 µM and the TGI ([12]; read-out: TGI) was 80.8 µM. The GI50 ([12]; read-out: pGI50 (converted)) was 5.01 µM, the CC50 [12, 31] was > 100 µM and the TGI ([12]; read-out: pTGI (converted)) was 81.3 µM. For the same molecule, the growth at 1 µM [13] was 4%, the growth at 0.01 µM [14] was 86% and the growth at 100 µM [15] was -31%. The growth at 0.1 µM [16] was 62%, the growth at 0.1 µM [17] was 70% and the growth at 100 µM [18] was -7%. It also gave a growth at 1 µM [19] of 18%, a growth at 10 µM [20] of 16% and a growth at 10 µM [21] of 9%. For the same molecule, the GI50 ([22]; read-out: GI50) was 0.176 µM, the CC50 [22, 30] was > 100 µM and the TGI ([22]; read-out: TGI) was 18.9 µM. The GI50 ([22]; read-out: pGI50 (converted)) was 0.178 µM, the CC50 [22, 31] was > 100 µM and the TGI ([22]; read-out: pTGI (converted)) was 19.1 µM. For the same molecule, the GI50 ([23]; read-out: GI50) was 0.283 µM, the CC50 [23, 30] was > 100 µM and the TGI ([23]; read-out: TGI) was 74.9 µM. For the same molecule, the GI50 ([23]; read-out: pGI50 (converted)) was 0.282 µM, the CC50 [23, 31] was > 100 µM and the TGI ([23]; read-out: pTGI (converted)) was 74.1 µM. The GI50 ([24]; read-out: GI50) was 0.296 µM, the LC50 ([24]; read-out: LC50) was > 100 µM and the TGI ([24]; read-out: TGI) was > 100 µM. For the same molecule, the GI50 ([24]; read-out: pGI50 (converted)) was 0.295 µM, the LC50 ([24]; read-out: pLC50 (converted)) was > 100 µM and the TGI ([24]; read-out: pTGI) was > 100 µM. The GI50 ([25]; read-out: GI50) was 0.346 µM, the CC50 [25, 30] was > 100 µM and the TGI ([25]; read-out: TGI) was > 100 µM. The GI50 ([25]; read-out: pGI50 (converted)) was 0.347 µM, the CC50 [25, 31] was > 100 µM and the TGI ([25]; read-out: pTGI) was > 100 µM. The growth at 10 µM [26] was -11%, the growth at 100 µM [27] was 7% and the growth at 0.01 µM [28] was 100%. For the same molecule, the growth at 0.1 µM [29] was 39%.
